ChEMBL document CHEMBL1201862, “PubChem BioAssay data set” (2004)
Several values for one entry are separate records, joined by “and”; a condition that tells them apart may be missing. Identical values can stand only once.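 These data come from cells grown in 96-well plates and exposed to compound for 48 hours at five concentrations. GI50 marks 50% less growth.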 Activity calls are given as the source filed them. Rule as the data show it: active = GI50 up to about 1.1 µM and inactive = higher.

What was measured:
Assay in all cases: inhibition of tumour cell growth, NCI panel, 48 h
786-0 = test system: 786-0
A498 = test system: A498
A549 = test system: A549
ACHN = test system: ACHN
BT-549 = test system: BT-549
CAKI-1 = test system: CAKI-1
COLO 205 = test system: COLO 205
DU-145 = test system: DU-145
EKVX = test system: EKVX
HCC 2998 = test system: HCC 2998
HCT-116 = test system: HCT-116
HCT-15 = test system: HCT-15
HOP-62 = test system: HOP-62
HT-29 = test system: HT-29
K562 = test system: K562
KM12 = test system: KM12
LOX IMVI = test system: LOX IMVI
M14 = test system: M14
MCF7 = test system: MCF7
MDA-MB-231 = test system: MDA-MB-231
MDA-MB-435 = test system: MDA-MB-435
MOLT-4 = test system: MOLT-4
NCI-H226 = test system: NCI-H226
NCI-H23 = test system: NCI-H23
NCI-H460 = test system: NCI-H460
NCI/ADR-RES = test system: NCI/ADR-RES
OVCAR-3 = test system: OVCAR-3
OVCAR-4 = test system: OVCAR-4
OVCAR-5 = test system: OVCAR-5
OVCAR-8 = test system: OVCAR-8
PC-3 = test system: PC-3
RPMI-8226 = test system: RPMI-8226
RXF 393 = test system: RXF 393
SF-268 = test system: SF-268
SF-295 = test system: SF-295
SF-539 = test system: SF-539
SK-MEL-28 = test system: SK-MEL-28
SK-MEL-2 = test system: SK-MEL-2
SK-MEL-5 = test system: SK-MEL-5
SK-OV-3 = test system: SK-OV-3
SNB-19 = test system: SNB-19
SNB-75 = test system: SNB-75
SR = test system: SR
SW-620 = test system: SW-620
T47D = test system: T47D
TK-10 = test system: TK-10
U-251 = test system: U-251
UACC-257 = test system: UACC-257
UACC-62 = test system: UACC-62
UO-31 = test system: UO-31
CCRF-CEM = test system: CCRF-CEM
HOP-92 = test system: HOP-92
IGROV-1 = test system: IGROV-1
NCI-H522 = test system: NCI-H522
SN12C = test system: SN12C

Measured: GI50

CS(=O)(=O)c1ccc(C(=O)O[C@@H]2C(=O)N3CC[C@H]4OC(O)[C@@H]2[C@H]43)cc1 (some centres not stated)
> 100 µM: HCT-15
inactive: 786-0 60.7 µM | A498 > 100 µM | A549 > 100 µM | ACHN > 100 µM | BT-549 > 100 µM | CAKI-1 > 100 µM | COLO 205 > 100 µM | DU-145 > 100 µM | EKVX > 100 µM | HCC 2998 > 100 µM | HCT-116 64.7 µM | HOP-62 > 100 µM | HT-29 > 100 µM | K562 > 100 µM | KM12 > 100 µM | LOX IMVI > 100 µM | M14 > 100 µM | MCF7 > 100 µM | MDA-MB-231 > 100 µM | MDA-MB-435 > 100 µM | MOLT-4 > 100 µM | NCI-H226 > 100 µM | NCI-H23 > 100 µM | NCI-H460 > 100 µM | NCI/ADR-RES > 100 µM | OVCAR-3 > 100 µM | OVCAR-4 > 100 µM | OVCAR-5 > 100 µM | OVCAR-8 > 100 µM | PC-3 > 100 µM | RPMI-8226 > 100 µM | RXF 393 > 100 µM | SF-268 > 100 µM | SF-295 > 100 µM | SF-539 > 100 µM | SK-MEL-28 > 100 µM | SK-MEL-2 > 100 µM | SK-MEL-5 > 100 µM | SK-OV-3 > 100 µM | SNB-19 > 100 µM | SNB-75 58.1 µM | SR > 100 µM | SW-620 > 100 µM | T47D > 100 µM | TK-10 > 100 µM | U-251 > 100 µM | UACC-257 > 100 µM | UACC-62 > 100 µM | UO-31 > 100 µM

CC(C)CC(C/C=C1/CC(CO)(COC(=O)C(C)(C)C)OC1=O)CC(C)C (configuration not stated)
inactive: A498 10 µM and 9.02 µM | BT-549 11.7 µM and 15.5 µM | HCC 2998 1.28 µM and 1.27 µM | HCT-116 15.9 µM and 13.8 µM | IGROV-1 15.2 µM and 12.1 µM | M14 12.1 µM and 13.8 µM | MCF7 19.7 µM and 18.2 µM | MDA-MB-231 3.03 µM | MOLT-4 1.3 µM and 2.14 µM | NCI-H23 11.8 µM and 10.9 µM | NCI-H522 14.1 µM and 14.8 µM | NCI/ADR-RES 14 µM and 17.4 µM | OVCAR-4 16.2 µM and 18.2 µM | OVCAR-5 6.7 µM and 11.8 µM | OVCAR-8 19 µM and 17 µM | PC-3 8.89 µM and 8.83 µM | RXF 393 16.1 µM and 21.8 µM | SF-268 10.8 µM and 12.4 µM | SF-539 6.49 µM | SK-MEL-2 16.4 µM and 11.9 µM | SK-OV-3 19.3 µM | SN12C 8.49 µM | SNB-19 10.5 µM and 6.03 µM | SNB-75 13.7 µM and 11.1 µM | SR 1.51 µM | SW-620 4.37 µM and 4.92 µM | T47D 19.5 µM and 11.7 µM | U-251 8.13 µM | UACC-257 16.4 µM and 16.8 µM | UACC-62 11.7 µM and 15.2 µM
15 µM and 14.7 µM: HCT-15
active: CCRF-CEM 0.069 µM | COLO 205 0.136 µM | HOP-92 0.893 µM | K562 173 nM and 123 nM | MDA-MB-435 410 nM and 818 nM | NCI-H460 278 nM and 209 nM
